Series [1] can be described thus: TLC metabolite analysis of blood samples, monkeys. Type of series: in vivo. The conditions noted are these: cynomolgus monkeys, plasma. As to the method: Monkeys were anesthetized with intramuscular administration of ketamine (10 mg/kg) and xylazine (0.5 mg/kg) with isoflurane inhalation anesthesia. Planar and Single Photon Emission Computed Tomography (SPECT) imaging was performed in monkeys using a γ-camera system (E-cam, Siemens, Erlangen, Germany) immediately after administration to 1 h and at 3 and 24 h post-administration of [^211At]PSMA-5 (9 MBq/kg), targeting the X-rays emitted from the daughter nuclide ^211Po (energy window: 79 keV ± 20%). Subsequent image analysis was performed by setting the regions of interest using Osirix MD software (Version 13, Pixmeo SARL, Bernex, Switzerland) and PMOD software (Version 3.903, PMOD Technologies, Fällanden, Switzerland). Blood samples were obtained pre-administration and at 1, 3, and 24 h post-administration, followed by euthanasia via bloodletting at 24 h.
The blood samples were centrifuged at 3000 rpm for 5 min, and the resulting plasma was mixed with twice the volume of ethanol, then agitated vigorously. The supernatants were analyzed by thin-layer chromatography (TLC).

Series [2] in a line: Extended single-dose toxicity study in mice: general condition, body weight, organ weight. Type of series: in vivo, ICR mice. The conditions noted are these: for testes organ weight: day 14. The method, then: This study was conducted in compliance with the Animal Experiment Regulations and the Act on Welfare and Management of Animals of the Osaka University Graduate School of Medicine (approval numbers: 04-070 and 04-094). Normal male ICR mice (n = 85, 5–6 weeks old, body weight: 29.4 ± 2.3 g) and cynomolgus monkey (n = 2, body weight: 2.10 and 2.05 kg) were purchased from Japan SLC Inc. (Hamamatsu, Japan) and Hamri Co., Ltd. (Ibaraki, Japan), respectively. The animals were housed under a 12 h light/12 h dark cycle. General condition and body weight were monitored.
[^211At]PSMA-5 was administered intravenously to 25 mice, and its biodistribution was evaluated. For the toxicity study, three doses of [^211At]PSMA-5 (5, 12, and 35 MBq/kg, single dose) or saline were intravenously administered to 10 mice/group for the main evaluation point on day 1, and 5-mice/group for recovery evaluation on day 14, adhering to the ICH M3 (R2) guidelines. The dosage was determined based on our previous study using [^211At]NaAt. The monkeys were monitored for 24 h post-administration of [^211At]PSMA-5 (9 MBq/kg).
The brain, salivary gland, thyroid, heart, lungs, liver, kidney, adrenal gland, pancreas, spleen, thymus, stomach, small intestine, large intestine, bladder, prostate, and testes were collected on days 1 or 14 in mice and at 24 h in monkeys. Additionally, the pituitary gland, tongue, trachea, esophagus, mesenteric lymph nodes, epididymis, seminal vesicles, skin, mammary glands, spinal cord, bone, bone marrow (femur), eyeball, and optic nerve were collected from the mice. After fixation, paraffin sections were prepared and stained with hematoxylin and eosin (HE). All the specimens were evaluated by an expert in toxic pathology using an integrated fluorescence microscope (BZ-X810; Keyence Corporation. Osaka, Japan). In mice, the brain, salivary glands, heart, lungs, liver, gallbladder, spleen, kidneys, and testes were weighed according to ICH S4 guideline.

Entries after “also recorded” stand apart in the source; their conditions may differ.

Regarding `O=C(O)CC[C@H](NC(=O)N[C@@H](CCCCNC(=O)[C@@H](Cc1ccc2ccccc2c1)NC(=O)c1ccc(CNC(=O)[C@@H](CCC(=O)O)NC(=O)[C@@H](CCC(=O)O)NC(=O)Cc2ccc([211At])cc2)cc1)C(=O)O)C(=O)O` [[^211At]PSMA-5], the “metabolites in blood samples (TLC)” value in series [1] was “no metabolites were detected”. The “STD10 in human after body surface area conversion” value in series [2] (converted from mice) was above 2.8 MBq/kg. Besides, the “body weight compared to the control” value is “significant decrease in body weight” in series [2] (mice, 12 MBq/kg, day 5) and “significant decrease in body weight” in series [2] (mice, 35 MBq/kg, day 10). The testes organ weight is on record as 0.18 ± 0.02 g in series [2] (mice, 12 MBq/kg) and 0.17 ± 0.003 g in series [2] (mice, 35 MBq/kg). Further, the “severe toxicity or death” value in series [2] (mice, highest dose 35 MBq/kg, 14-day observation) is “No severe toxicity or death was observed; also recorded: no severe toxicity”. The “STD10 (dose that causes severe toxicity in 10% of test animals)” value in series [2] (mice, single i.v. dose) is given as “exceed 35 MBq/kg”.

These data come from PMC11172375, “Preclinical Evaluation of Biodistribution and Toxicity of [^211At]PSMA-5 in Mice and Primates for the Targeted Alpha Therapy against Prostate Cancer” (International Journal of Molecular Sciences, 2024).
